In publication PMC8230863 (The Journal of Venomous Animals and Toxins Including …, 2021):
Bridge positions count the residues as written; N and C are the ends. Peptide text beside a SMILES is read from it.

Legend:
Assay type in all cases: cell-based
[1] = tested on: sodium channel currents in rat DRG neurons; conditions: 10 μM; n = 3
[2] = tested on: potassium channel currents in rat DRG neurons; conditions: 10 μM
[3] = tested on: calcium channel currents in rat DRG neurons
human Cav2.2 = conditions: 10 μM; SD

`CSCC[C@@H]1NC(=O)[C@H](CCC(N)=O)NC(=O)[C@@H]2CSSC[C@@H](C(=O)N3CCC[C@H]3C(N)=O)NC(=O)[C@@H]3CSSC[C@H](NC(=O)[C@@H](NC(=O)CNC(=O)[C@@H](N)CCC(N)=O)CSSC[C@H](NC(=O)[C@H](C)NC(=O)[C@H](C)NC1=O)C(=O)N[C@@H](CC(N)=O)C(=O)N1CCC[C@H]1C(=O)N1CCC[C@H]1C(=O)N1CCC[C@H]1C(=O)N3)C(=O)N1CCC[C@H]1C(=O)N1CCC[C@H]1C(=O)NCC(=O)N[C@@H](C(C)C)C(=O)N2` [Vr3a] (H-QGCCPPGVCQMAACNPPPCCP-NH2; disulfide 3-14, 4-19, 9-20) was tested, and the “effect on the peak of the sodium currents” value [1] was “no effects”, the “shift in the activation curve of sodium channels (change of V50)” value [1] was ~ 10 mV and the “shift in the current-voltage relationship of sodium channels” value [1] was ~ 10 mV. For the same molecule, the “shift in the inactivation curve of sodium channels (change of V50)” value [1] was ~ 5 mV, the “shift in the recovery curve, delaying sodium channel recovery” value [1] was ~ 0.002 second and the “increase of the peak potassium currents” value ([2]; SD) was 19.61 ± 5.12%. For the same molecule, the “shift in the current-voltage relationship of potassium channels” value ([2]; n = 3) was “do not induce a shift”, the “inhibition of the peak calcium currents” value ([3]; 10 μM, SD) was 31.26% ± 4.53% and the “shift in the current-voltage relationship of calcium channels” value ([3]; 10 μM, n = 3) was “do not induce a shift”. For the same molecule, the IC50 ([3]; SD) was 19.3 ± 4.32 µM and the “inhibition of human Cav2.2 currents” value (human Cav2.2) was 12.86% ± 4.93%.
